21 compounds from patent publication US9809583B2 (priority 2014, dated 2017) can be followed below.

Read-outs that look alike come from different tables or passages of the source.

The target of assay [1] is T1, androgen receptor (hAR) (Homo sapiens (Human), UniProt P10275). The assay can be described thus: Test of transcriptional activity (hAR / ARE-Luc dual-luciferase assay in CHO cells). In kind it is cell-based. The note with it: EC50 [nM] (mean ± SE), CHO cells with hAR and ARE-Luc, 24 hours; 10 nM DHT = 100%. Summed up:
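Compound at 0.1˜10,000 nM applied for 24 h to CHO cells carrying transfected human AR and an ARE-driven luciferase reporter. Cells were grown 24 h before transfection; readout was dual-luciferase luminescence.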

The target of assay [2] is T1, androgen receptor (hAR). The assay can be described thus: biochemical. The format is binding. The protocol: In order to examine binding ability of the agonists of the present invention to androgen receptors, the following in-vitro experiment was performed. African green monkey kidney fibroblast-like cell line, COS-7 (ATCC, #CRL-1651) was seeded in a 48-well plate at a density of 2.5×10^4 cells/well, and cultured for 24 hours. Then, a plasmid hAR-mixed medium was added thereto. […] Thereafter, the cells were lysed and the amount of [3H]MIB bound to the intracellular androgen receptors was measured using a radiation dosimeter.

Assay [3] concerns castrated male rats. As to the kind of experiment: Efficacy test in castrated male rat (Hershberger assay). In kind it is in vivo, SD (Sprague-Dawley) rat. The note with it: castrated male SD rats, oral once a day for 14 days. The method, then: SD (Sprague-Dawley) male rats (7-week-old) were castrated under ketamine/xylazine anesthesia, and 5 rats were randomly assigned to one group. From the next day, the agonists were dissolved in a vehicle solution and orally administered at a dose of 5 ml per kg once a day for 14 days. As the vehicle, DMSO, Co-solvent, and DW were prepared at a ratio of 4:80:16 (v/v/v), and Co-solvent was prepared by mixing PEG400, Ethanol, and Tween 80 at a ratio of 85:10:5 (v/v/v). 24 hours after last administration of the drug, their body weight was measured and killed. Thereafter, levator ani muscle, ventral prostate, and seminal vesicles were removed and weighed (Hershberger assay). The following Table 6 represents the result of the efficacy test in castrated male rats.

Where [4] appears, read: 1 nM [3H]MIB, hAR-transfected COS-7 cells, 2 hours, read-out: IC50 [nM] (mean ± SE).

T1 sequence (P10275 whole entry): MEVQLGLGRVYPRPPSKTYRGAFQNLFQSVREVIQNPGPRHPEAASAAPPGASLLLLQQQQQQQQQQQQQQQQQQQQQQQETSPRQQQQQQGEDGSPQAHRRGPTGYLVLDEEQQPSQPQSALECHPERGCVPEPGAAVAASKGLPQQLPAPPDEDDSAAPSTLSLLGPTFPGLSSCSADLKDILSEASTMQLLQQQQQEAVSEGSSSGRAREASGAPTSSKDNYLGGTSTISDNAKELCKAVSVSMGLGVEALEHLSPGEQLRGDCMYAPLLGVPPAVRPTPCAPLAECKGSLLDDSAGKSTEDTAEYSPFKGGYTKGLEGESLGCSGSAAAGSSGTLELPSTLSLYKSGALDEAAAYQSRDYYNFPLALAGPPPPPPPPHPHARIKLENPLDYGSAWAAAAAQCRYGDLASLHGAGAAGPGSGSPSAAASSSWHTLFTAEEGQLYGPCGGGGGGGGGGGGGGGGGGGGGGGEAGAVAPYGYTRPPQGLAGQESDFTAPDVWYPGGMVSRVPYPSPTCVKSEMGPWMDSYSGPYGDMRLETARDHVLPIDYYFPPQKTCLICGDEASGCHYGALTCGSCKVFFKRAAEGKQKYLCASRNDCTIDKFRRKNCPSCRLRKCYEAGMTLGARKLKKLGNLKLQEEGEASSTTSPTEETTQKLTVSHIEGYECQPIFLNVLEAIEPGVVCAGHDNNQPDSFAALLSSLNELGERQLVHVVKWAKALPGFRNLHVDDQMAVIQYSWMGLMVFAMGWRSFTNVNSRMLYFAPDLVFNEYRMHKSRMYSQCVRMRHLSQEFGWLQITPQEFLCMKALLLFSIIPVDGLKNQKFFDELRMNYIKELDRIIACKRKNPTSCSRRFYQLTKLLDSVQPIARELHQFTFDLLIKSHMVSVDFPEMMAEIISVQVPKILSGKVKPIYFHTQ

For orientation: EC50 means the concentration needed to bring the measured effect to its halfway point. The low end stands for a more potent agent, the high end for a less potent agent. What is called IC50 is the concentration that gives 50% inhibition. With `N#Cc1ccc(COC[C@@H]2CN(c3ccc(C#N)c(C(F)(F)F)c3)[C@@H](C(F)(F)F)O2)cc1` [Example 2, 4-((2R,5S)-5-(((4-cyanobenzyl)oxy)methyl)-2-(trifluoromethyl)oxazolidin-3-yl)-2-(trifluoromethyl)benzonitrile], in assay [1], the EC50 was 133 nM. Further, the concentration for half-maximal inhibition (IC50) in assay [2] (setting [4]) was found to be 23.9 nM.

In assay [1], `N#Cc1ccc(OC[C@@H]2CN(c3ccc(C#N)c(C(F)(F)F)c3)[C@H](C(F)(F)F)O2)cc1` [Example 6, 4-((2S,5S)-5-((4-cyanophenoxy)methyl)-2-(trifluoromethyl)oxazolidin-3-yl)-2-(trifluoromethyl)benzonitrile] yielded a concentration for a half-maximal effect (EC50) of 4.1 nM. In addition, in assay [2] (setting [4]), the IC50 was 11 nM.

Compound `COC(=O)c1ccc(OC[C@@H]2CN(c3ccc(C#N)c(C(F)(F)F)c3)[C@@H](C(F)(F)F)O2)cc1` [Example 7, methyl 4-(((2R,5S)-3-(4-cyano-3-(trifluoromethyl)phenyl)-2-(trifluoromethyl)oxazolidin-5-yl)methoxy)benzoate] returned an EC50 in assay [1] of 13.1 nM. The concentration for half-maximal inhibition (IC50) in assay [2] (setting [4]) came out at 15.7 nM.

For `N#Cc1ccc(N2C[C@@H](COc3ccc([N+](=O)[O-])cc3)O[C@@H]2C(F)(F)F)cc1C(F)(F)F` [Example 8, 4-((2R,5S)-5-((4-nitrophenoxy)methyl)-2-(trifluoromethyl)oxazolidin-3-yl)-2-(trifluoromethyl)benzonitrile], the EC50 in assay [1] is 20 nM. The half-inhibitory concentration (IC50) in assay [2] (setting [4]) was found to be 13.7 nM.

Consider `N#Cc1ccc(N2C[C@@H](COc3ccc(F)c(F)c3)O[C@@H]2C(F)(F)F)cc1C(F)(F)F` [Example 10, 4-((2R,5S)-5-((3,4-difluorophenoxy)methyl)-2-(trifluoromethyl)oxazolidin-3-yl)-2-(trifluoromethyl)benzonitrile], for which, in assay [1], a half-maximal response (EC50) required 11.1 nM. Further, the half-maximal inhibitory concentration (IC50) in assay [2] (setting [4]) turned out to be 6.3 nM.

Turning to `N#Cc1ccc(OC[C@@H]2CN(c3ccc(C#N)c(C(F)(F)F)c3)[C@@H](C(F)(F)F)O2)c(F)c1` [Example 11, 4-((2R,5S)-5-((4-cyano-2-fluorophenoxy)methyl)-2-(trifluoromethyl)oxazolidin-3-yl)-2-(trifluoromethyl)benzonitrile], the concentration for a half-maximal effect (EC50) in assay [1] was 4.5 nM. Further, the IC50 in assay [2] (setting [4]) stood at 10.5 nM.

In turn, `N#Cc1ccc(N2C[C@@H](COc3cc(F)c(F)cc3F)O[C@@H]2C(F)(F)F)cc1C(F)(F)F` [Example 13, 2-(trifluoromethyl)-4-((2R,5S)-2-(trifluoromethyl)-5-((2,4,5-trifluorophenoxy)methyl)oxazolidin-3-yl)benzonitrile] registered an EC50 in assay [1] of 9.9 nM. Moreover, the half-maximal inhibitory concentration (IC50) in assay [2] (setting [4]) was 14.5 nM.

On to `N#Cc1ccc(OC[C@@H]2CN(c3ccc(C#N)c(C(F)(F)F)c3)[C@@H](C(F)(F)F)O2)cc1` [Example 19, 4-((2R,5S)-5-((4-cyanophenoxy)methyl)-2-(trifluoromethyl)oxazolidin-3-yl)-2-(trifluoromethyl)benzonitrile], for which the response in assay [1] was half-maximal at 1 nM (EC50). For the same compound, in assay [2] (setting [4]), the 50% inhibitory concentration (IC50) came out at 7.6 nM. Also, the “levator ani muscle weight % relative to intact control group” value was found to be 7.2 ± 4.3% in assay [3] (0.3 mg/kg); 45.9 ± 5.8% in assay [3] (1 mg/kg); 70.6 ± 6.6% in assay [3] (3 mg/kg); 63.9 ± 4.8% in assay [3] (10 mg/kg); 78.4 ± 11.0% in assay [3] (30 mg/kg); 68.3 ± 7.3% in assay [3] (100 mg/kg). The “seminal vesicles weight % relative to intact control group” value in assay [3] (0.3 mg/kg) is given as 4.8 ± 1.3%; in assay [3] (1 mg/kg) it was 78.2 ± .1%; in assay [3] (3 mg/kg), 17.3 ± 5.6%; in assay [3] (10 mg/kg), 22.9 ± 4.3%; in assay [3] (30 mg/kg) it was 33.4 ± 2.0%; in assay [3] (100 mg/kg) it was 36.4 ± 9.2%. The “ventral prostate weight % relative to intact control group” value turned out to be 1.7 ± 0.6% in assay [3] (0.3 mg/kg); 10.2 ± 3.9% in assay [3] (1 mg/kg); 11.4 ± 3.0% in assay [3] (3 mg/kg); 14.4 ± 2.7% in assay [3] (10 mg/kg); 18.3 ± 4.5% in assay [3] (30 mg/kg); 18.0 ± 5.2% in assay [3] (100 mg/kg).

In the case of `N#Cc1ccc(N2C[C@@H]([C@@H](O)C(F)(F)F)O[C@@H]2C(F)(F)F)cc1C(F)(F)F` [Example 23, 4-((2R,5S)-5-((R)-2,2,2-trifluoro-1-hydroxyethyl)-2-(trifluoromethyl)oxazolidin-3-yl)-2-(trifluoromethyl)benzonitrile], in assay [2] (setting [4]), the IC50 came to 44.3 nM.

Regarding `N#Cc1ccc(N2C[C@@H]([C@H](O)C(F)(F)F)O[C@@H]2C(F)(F)F)cc1C(F)(F)F` [Example 24, 4-((2R,5S)-5-((S)-2,2,2-trifluoro-1-hydroxyethyl)-2-(trifluoromethyl)oxazolidin-3-yl)-2-(trifluoromethyl)benzonitrile], the concentration for half-maximal inhibition (IC50) in assay [2] (setting [4]) is 141 nM.

For the compound `N#Cc1ccc(N2C[C@@H](CSc3ccc(Cl)cc3)O[C@@H]2C(F)(F)F)cc1C(F)(F)F` [Example 26, 4-((2R,5S)-5-(((4-chlorophenyl)thio)methyl)-2-(trifluoromethyl)oxazolidin-3-yl)-2-(trifluoromethyl)benzonitrile], the midpoint of the response in assay [1], the EC50, lay at 8.6 nM. The 50% inhibitory concentration (IC50) in assay [2] (setting [4]) was 43.6 nM.

Take `COc1ccc(OC[C@@H]2CN(c3ccc(C#N)c(C(F)(F)F)c3)[C@@H](C(F)(F)F)O2)cc1` [Example 27, 4-((2R,5S)-5-((4-methoxyphenoxy)methyl)-2-(trifluoromethyl)oxazolidin-3-yl)-2-(trifluoromethyl)benzonitrile]: the IC50 in assay [2] (setting [4]) worked out at 22.4 nM.

On to `COc1cccc(OC[C@@H]2CN(c3ccc(C#N)c(C(F)(F)F)c3)[C@@H](C(F)(F)F)O2)c1` [Example 28, 4-((2R,5S)-5-((3-methoxyphenoxy)methyl)-2-(trifluoromethyl)oxazolidin-3-yl)-2-(trifluoromethyl)benzonitrile], for which the half-maximal inhibitory concentration (IC50) in assay [2] (setting [4]) was found to be 77.2 nM.

On to `N#Cc1ccc(SC[C@@H]2CN(c3ccc(C#N)c(C(F)(F)F)c3)[C@@H](C(F)(F)F)O2)cc1` [Example 29, 4-((2R,5S)-5-(((4-cyanophenyl)thio)methyl)-2-(trifluoromethyl)oxazolidin-3-yl)-2-(trifluoromethyl)benzonitrile], for which, in assay [1], the EC50 was found to be 7.5 nM. Besides, the half-inhibitory concentration (IC50) in assay [2] (setting [4]) was 14.1 nM.

`CC(=O)Nc1ccc(OC[C@@H]2CN(c3ccc(C#N)c(C(F)(F)F)c3)[C@H](C(F)(F)F)O2)cc1` [Example 30, N-(4-(((2S,5S)-3-(4-cyano-3-(trifluoromethyl)phenyl)-2-(trifluoromethyl)oxazolidin-5-yl)methoxy)phenyl)acetamide]: in assay [2] (setting [4]), the IC50 was determined as 142 nM.

`N#Cc1ccc(N2C[C@@H](COc3ccc([N+](=O)[O-])c(F)c3)O[C@@H]2C(F)(F)F)cc1C(F)(F)F` [Example 31] registered an EC50 in assay [1] of 17.7 nM. Also, the 50% inhibitory concentration (IC50) in assay [2] (setting [4]) was determined as 14.1 nM.

As to `CNC(=O)c1ccc(OC[C@@H]2CN(c3ccc(C#N)c(C(F)(F)F)c3)[C@@H](C(F)(F)F)O2)cc1` [Example 32, 4-(((2R,5S)-3-(4-cyano-3-(trifluoromethyl)phenyl)-2-(trifluoromethyl)oxazolidin-5-yl)methoxy)-N-methylbenzamide], in assay [2] (setting [4]), the IC50 was determined as 32.7 nM.

As for `N#Cc1ccc(N2C[C@@H](COc3ccc([N+](=O)[O-])cc3F)O[C@@H]2C(F)(F)F)cc1C(F)(F)F` [Example 33, 4-((2R,5S)-5-((2-fluoro-4-nitrophenoxy)methyl)-2-(trifluoromethyl)oxazolidin-3-yl)-2-(trifluoromethyl)benzonitrile], a half-maximal effect in assay [1] (EC50) was put at 10.7 nM. Moreover, the IC50 in assay [2] (setting [4]) stood at 10.4 nM.

`CN(C)C(=O)c1ccc(OC[C@@H]2CN(c3ccc(C#N)c(C(F)(F)F)c3)[C@@H](C(F)(F)F)O2)cc1` [Example 34, 4-(((2R,5S)-3-(4-cyano-3-(trifluoromethyl)phenyl)-2-(trifluoromethyl)oxazolidin-5-yl)methoxy)-N,N-dimethylbenzamide]: in assay [1], the EC50 was 111 nM. The compound further yielded an IC50 in assay [2] of 24.1 nM.

Consider `N#Cc1ccc(N2C[C@@H](COc3ccc([N+](=O)[O-])cc3)O[C@H]2C(F)(F)F)cc1C(F)(F)F` [Example 35, 4-((2S,5S)-5-((4-nitrophenoxy)methyl)-2-(trifluoromethyl)oxazolidin-3-yl)-2-(trifluoromethyl)benzonitrile], for which the IC50 in assay [2] (setting [4]) worked out at 185 nM.

In assay [1], `N#Cc1ccc(N2C[C@@H](COc3ccc(Cl)cc3)O[C@@H]2C(F)(F)F)cc1C(F)(F)F` [Example 56, 4-((2R,5S)-5-((4-chlorophenoxy)methyl)-2-(trifluoromethyl)oxazolidin-3-yl)-2-(trifluoromethyl)benzonitrile] showed an EC50 of 75.1 nM. Also, the half-inhibitory concentration (IC50) in assay [2] (setting [4]) was found to be 75.1 nM.
